Assay results reported in patent US20050079176A1, “Treating stress response with chemokine receptor ccr5 modulators” (priority 2002, published 2005).
Several values for one entry are separate records, joined by “and”; a condition that tells them apart may be missing. Equal values may be shown once. Entries after “also recorded” stand apart in the source; their conditions may differ.

What was measured:
[1] = test system: Cynomolgus macaques (Macaca fascicularis); experiment: Fever suppression after cardiac allotransplantation (telemetry body temperature, behaviour); assay type: in vivo; conditions: for monkeys that did not develop a fever (temperature greater than 38.5° C.): while recovering from transplantation, seven monkeys treated with CCR5 antagonist (alone or with cyclosporin)
[2] = test system: cynomolgus cardiac allografts; experiment: Cardiac allograft survival / graft function after heterotopic transplantation; assay type: in vivo, Macaca fascicularis
Source text: Cynomolgus macaques (Macaca fascicularis), weighing 2.4-4.7 kg, and ranging in estimated age from 2.2-5.5 years were selected as organ recipients. Donors were matched to recipients by AB blood type compatibility as tested by New York University, Nelson Institute of Environmental Medicine, Tuxedo, N.Y. MHC class II mismatch was assured by a stimulation index (SI)>3 in paired animals in unidirectional mixed lymphocyte reaction (MLR) using potential donor lymphocytes as stimulators and potential recipient peripheral blood mononuclear cells (PBMCs) as responders. Animals were matched by assigning pairs with maximal MLR response within groups of blood type compatible animals.
Donor operation: After systemic heparinization (70 units/kg, Elkins-Sinn Inc., Cherry Hill, N.J.) and collection of donor blood during equivolemic saline infusion, diastolic arrest of the donor heart was induced with University of Wisconsin organ preservation solution (15-20 cc/kg, 4° C.) via the aortic root. The heart was explanted and prepared: The mitral valve was rendered incompetent surgically, to prevent left ventricular distention, and an atrial septal defect was created by excising the fossa ovalis, to allow blood entering the left heart through the thebesian circulation to transit to and be ejected from the right heart.
Recipient operation: All recipient animals underwent traditional non-working intraabdominal cardiac allograft transplantation using a single clamp technique, wherein the donor aorta was anastomosed end-to-side to the infrarenal abdominal aorta, and the donor pulmonary artery was anastomosed to the adjacent vena cava. Heparin (70 Units/kg) (a Unit is equivalent to 3 mg/kg of body weight) was administered to the recipient prior to clamp placement. A silicon central venous catheter was introduced via the internal jugular vein, and tunneled to exit between the scapulae. Catheters were attached to swivel connection systems, and animals placed in protective cloth jackets incorporating a swiveling system which protected venous access.
Graft function and body temperature were assessed twice daily by monitoring with a fully implantable telemetry device (Data Sciences International, St. Paul, Minn.) (electrocardiogram (EKG), right ventricular pressure and animal body temperature) implanted at the time of transplantation. Confirmatory abdominal ultrasounds were performed at the time of protocol biopsies and whenever an examiner appreciated decreased contractility, if EKG voltage or rate (<120 beats per minute) was decreased, or if developed pulse pressure (delta P) in the graft was decreased. Cardiac biopsies were performed by protocol on postoperative days 4, 7, 14, through a laparotomy incision using a core biopsy needle. Graft failure was defined as loss of palpable graft activity, with ultrasound confirmation of weak or absent myocardial contractility. Failed grafts were explanted promptly and examined histologically.
Three animals received Compound A as monotherapy at a dose of 5 mg/kg, two animals received Compound A as monotherapy at a dose of 10 mg/kg, and three animals received an equivalent volume of saline (control). Compound A was administered intravenously twice daily at 12 hour intervals (i.e., b.i.d.) starting at transplant. […] The dose on the first day was 12.5 mg/kg, then 10 mg/kg daily for 7 days, then 5 mg/kg daily for 7 days, then 2.5 mg/kg/day until graft rejection or animal sacrifice.

CCR5+ cells = experiment: Double-label immunofluorescence microscopy of leukocytes infiltrating rejecting allografts; assay type: in vivo, Macaca fascicularis; conditions: in association with CCR5 blockade
Source text: Double-label immunofluorescence microscopy using antibodies specific for CD3, CD68, CD11b, CCR5 and CXCR3 was used to characterize leukocyte populations infiltrating acutely rejecting (days 4, 6) cynomolgus cardiac allografts. CCR5 and CXCR3 are prominent on monocytes/macrophages and to a lesser extent on T-cells in rejecting cynomolgus heart allografts. Co-localization of CCR5 and CXCR3 to the same cells was common, particularly on the […] monocyte/macrophage population. Infiltration of CCR5+ cells was inhibited in association with CCR5 blockade. Graft failure was identified by a decrease in heart rate and ST elevation (associated with ischemia) on EKG and a decrease in arterial line pressure. […] (Note: n=7 refers to the data for the 3 control (i.e., saline) monkeys in this experiment plus data for 4 animals from a historic database that were scored as controls in which cyno cardiac allografts were rejected in the absense of immunosupression in a manner identical to the three controls in this experiment.)

[3] = Plasma trough concentrations by LC-MS/MS; assay type: in vivo, Macaca fascicularis; conditions: cynomolgus plasma, Compound A i.v. b.i.d.
CCR5 receptor = molecular target: T1, CCR5 receptor (Macaca fascicularis, UniProt P61814); experiment: Receptor occupancy corresponding to plasma concentration; assay type: binding; conditions: at a concentration of 100 nM
T1 construct: endogenous in cells; host or cells: cynomolgus monkey (in vivo, CCR5-bearing leukocytes)

IL6 [4] = experiment: Serum IL6 by DuoSet ELISA pre and post heterotopic heart transplant; assay type: in vivo, cynomolgus monkeys
Experimental: IL1β and IL6 can be measured using the DuoSet ELISA development kits from R&D Systems (Minneapolis, Minn.), following the directions of the manufacturer. Briefly, plates are coated with capture antibody [mouse anti-human IL1β (2 μg/ml) or mouse anti-human IL6 (4 μg/ml)] and detection antibodies are used at 100 ng/ml (biotinylated goat anti-human IL1β) or 200 ng/ml (biotinylated goat anti-human IL6). Standards are prepared with recombinant protein (3.9-250 pg/ml for IL1β and 4.7-300 pg/ml for IL6). Streptavidin conjugated to horseradish peroxidase and H2O2/tetramethylbenzidine are used for color development. Optical density (OD) is measured at 450 nm, with correction at 570 nm.
Serum samples were taken from the cynomolgus monkeys in Example 1 at various time points pre- and post-transplantation. The samples were diluted 1:2, in PBS/0.1% BSA/0.05% Tween 20. (PBS=phosphate buffered saline; BSA=bovine serum albumin.) IL6 levels (pg/ml) in pre and post heterotopic heart transplant in serum from the cynomolgus monkeys treated with Compound A were determined obtained in accordance with the above-described procedure.

IL6 [5] = experiment: Cytometric Bead Array Human Inflammation Kit, serum/plasma on day of explant: IL6; assay type: in vivo, cynomologous monkeys
Experimental: (§1) Serum and plasma samples taken from the cynomologous monkeys in Example 1 on the day of explant (i.e., the day of graft rejection) were analyzed using the BD Pharmingen Cytometric Bead Array Human Inflammation Kit, which can measure IL1-β, IL6, IL8, IL10, IL12p70 and TNF-α. Reagents to detect IL6, IL8 and TNF-α have been shown by the manufacturer to cross react with rhesus and cynomologus monkey proteins. At the time of the assay, reagents to measure IL1-beta and IL12p70 had not yet been tested for cross reactivity to non-human primate proteins.
Samples were assayed in the manner described in the manufacturer's protocol booklet; i.e., “Human Inflammation Kit—Instruction Manual” (BD Biosciences, Cat. No. 551811, pdf copy available at www.bdbiosciences.com). Briefly, assay standards were reconstituted with assay diluent and diluted in two fold steps by serial dilution. Capture beads were mixed and distributed into an appropriate number of 12×75 mm polystyrene tubes. Standards or samples were added to the tubes and incubated in the dark at room temperature for 1.5 hours. The incubated tubes were washed once and phycoerythrin (PE)-labeled detection antibody reagent was added. Samples were again incubated in the dark at room temperature for 1.5 hours. After one final wash, samples were resuspended in 300 uL of wash buffer. Flow cytometer data was acquired using a Becton Dickinson FACSCalibur and analyzed with Becton Dickinson CBA Software.

IL8 = experiment: Cytometric Bead Array Human Inflammation Kit, serum/plasma on day of explant: IL8; assay type: in vivo, cynomologous monkeys; conditions: Compound A-treated monkeys
Experimental: as §1
Samples were assayed in the manner described in the manufacturer's protocol booklet; i.e., “Human Inflammation Kit—Instruction Manual” (BD Biosciences, Cat. No. 551811, pdf copy available at www.bdbiosciences.com). Briefly, assay standards were reconstituted with assay diluent and diluted in two fold steps by serial dilution. Capture beads were mixed and distributed into an appropriate number of 12×75 mm polystyrene tubes. Standards or samples were added to the tubes and incubated in the dark at room temperature for 1.5 hours. The incubated tubes were washed once and phycoerythrin (PE)-labeled detection antibody reagent was added. Samples were again incubated in the dark at room temperature for 1.5 hours. […] Flow cytometer data was acquired using a Becton Dickinson FACSCalibur and analyzed with Becton Dickinson CBA Software.

[6] = test system: IL1-beta mRNA expression in RANTES-stimulated macrophages; experiment: Cytokine mRNA expression (TaqMan) in RANTES-stimulated human macrophages: IL1-beta; assay type: cell-based; conditions: RANTES 250 nM
Experimental: (§2) Human monocytes were isolated white blood cells concentrated from units of blood (i.e., leukopaks) from normal donors. To enhance CCR5 expression, the monocytes were cultured under suspension conditions in Teflon jars for 2 days in media supplemented with 12% fetal bovine serum. 10^6 cells were seeded and allowed to attach for over 2 hours in 6-well tissue culture plates. Cells were pre-incubated with either dimethylsulfoxide (DMSO; vehicle control) or Compound A at various concentrations for 1 hour, after which RANTES (the CCR5 agonist/ligand; Pepro Tech Inc.) was added at 250 nM, or, alternatively, media was added as a control. The cells were incubated at 37° C. for 24 hours, after which the media were removed and centrifuged to precipitate the non-adherent cells. Both the adhered and non-adhered cells were lysed and subjected to mRNA isolation, and the mRNA isolate was analyzed for cytokine expression by quantitative real time PCR (TaqMan). The relative mRNA-fold induction of cytokine gene expression in the RANTES-stimulated macrophages was calculated relative to day 2 non-stimulated, non-treated controls (i.e. fold induction=1 on day 2 for controls), as well as fold mRNA induction relative to vehicle (DMSO) (0 nM) control RANTES stimulated cells.

[7] = test system: IL6 mRNA expression in RANTES-stimulated macrophages; experiment: Cytokine mRNA expression (TaqMan) in RANTES-stimulated human macrophages: IL6; assay type: cell-based; conditions: RANTES 250 nM
Experimental: as §2

[8] = Homo sapiens, Macrophage, Compound A 10 nM, 24 hours, mean ± SD
[9] = Homo sapiens, Macrophage, Compound A 30 nM, 24 hours, mean ± SD
[10] = Homo sapiens, Macrophage, Compound A 300 nM, 24 hours, mean ± SD

CCn1nc(Cc2ccccc2)cc1C1CCN(C[C@H]2C[C@H](N(C)[C@@H](C(=O)O)C(C)C)C[C@@H]2c2cccc(F)c2)CC1 [Compound A]
malaise ([1]; after cardiac allotransplantation, in contrast to the five control animals): not to exhibit malaise
symptoms of abdominal tenderness ([1]; after transplant and during rejection of the graft): did not exhibit any symptoms of abdominal tenderness
recovery from surgery (how quickly normal activity levels resumed) ([1]; despite additional procedures on days 4 and 7-8): recovered more quickly from surgery
average temperature ([1]; first three days after allograft implantation, six of the seven animals treated with Compound A (5 or 10 mg/kg b.i.d. i.v., alone or with CsA)): below 37.5 °C
average temperature difference versus control monkeys (saline, no immunosuppressive therapy) ([1]; first three days after surgery): about one degree lower
average temperature difference versus cyclosporin-only-treated animals ([1]; first three days after surgery): one half degree lower; also recorded: about 0.5 °C
average temperature over the first three days after surgery ([1]; monkeys with cardiac allografts, control (saline) ca. 38.5° C.): circa 37.5 °C
animals in which individual temperature elevations reached 38.5° C. on any occasion ([1]; of the seven animals treated with Compound A): 3
monkeys that did not develop a fever (temperature greater than 38.5° C.) [1]: six of seven
monkeys that did not develop a fever (temperature greater than 38.5° C.) ([1]; listed as CCR5 antagonist): Six out of the seven
Graft survival ([2]; Compound A monotherapy 5 mg/kg i.v. b.i.d., n=3, controls 6±0.4 days (n=7), p=0.05): 8.3 ± 0.6 days
Explant Day (day of graft rejection) ([2]; M308, Compound A monotherapy at 10 mg/kg/day b.i.d.): 8
Explant Day (day of graft rejection) ([2]; M627, Compound A 10 mg/kg b.i.d., rescued day 9 with bolus steroids, combined therapy with CsA 43 days, from day 52 Compound A monotherapy): 85
day to which vigorous graft function persisted ([2]; one animal: Compound A alone 10 mg/kg b.i.d., rescued day 9 with bolus steroids, combined therapy with CsA 43 days, CsA stopped day 52, Compound A continued): 83 days and 78 days
Infiltration of CCR5+ cells into cardiac allografts (CCR5+ cells): inhibited
trough plasma concentration (levels fell below target range at trough) [3]: < 100 nM
receptor occupancy at 0.1 µM (CCR5 receptor): ~90%
IL6 level, Day 0 Post (IL6 [4]; serum post-transplantation, Compound A monotherapy 10 mg/kg/day b.i.d., M308, M627): 63.7 pg/mL and 106.2 pg/mL
IL6 level, Day 0 Pre (IL6 [4]; serum pre-transplantation, animals M308, M627 later given Compound A monotherapy 10 mg/kg/day b.i.d.): 4.6 pg/mL and 3.4 pg/mL
IL6 level, Day 8 (IL6 [4]; serum, Compound A monotherapy 10 mg/kg/day b.i.d., M308): 24.3 pg/mL
IL6 on day of explant (IL6 [5]; M308, Compound A monotherapy at 10 mg/kg/day b.i.d., explant day 8): 58 pg/mL
IL6 on day of explant (IL6 [5]; M627, Compound A 10 mg/kg b.i.d., steroid rescue day 9, combined therapy with CsA 43 days, Compound A monotherapy from day 52, explant day 85): 20 pg/mL
IL6 cytokine levels at the time of graft rejection relative to monkeys treated only with CsA (IL6 [5]; monkeys treated with Compound A): suppressed
IL8 cytokine levels at the time of graft rejection relative to CsA-only treated monkeys (IL8): did not indicate suppression of IL8 levels
inhibition at 0.003 µM ([6]; Homo sapiens, Macrophage, Compound A 3 nM, 24 hours, mean ± SD): 37.6%
inhibition at 0.01 µM [6, 8]: 50.1%
inhibition at 0.03 µM [6, 9]: 59%
inhibition at 0.1 µM ([6]; Homo sapiens, Macrophage, Compound A 100 nM, 24 hours, mean ± SD): 76.8%
inhibition at 0.3 µM [6, 10]: 80.6%
effect on IL1-β mRNA up-regulation by RANTES ([6]; human macrophages): diminish IL1-β and IL6 up-regulation significantly; also recorded: dose-dependent
inhibition at 0.003 µM ([7]; Homo sapiens, Macrophage, Compound A 3 nM, 24 hours): 43%
inhibition at 0.01 µM [7, 8]: 16.1%
inhibition at 0.03 µM [7, 9]: 65.9%
inhibition at 0.1 µM ([7]; Homo sapiens, Macrophage, Compound A 100 nM, 24 hours): 67.1%
inhibition at 0.3 µM [7, 10]: 85.9%
effect on IL6 mRNA up-regulation by RANTES ([7]; human macrophages): diminish IL1-β and IL6 up-regulation significantly; also recorded: dose-dependent
